Values quoted from earlier work, collected in US20230002726A1, “METHODS OF IN-OVO SCREENING OF ANTI-CANCER THERAPIES” (ICHILOV TECH LTD., priority 2020, published 2023).

System: MSI-low tumors
Conditions: stated as known; cited from earlier work

In the case of Pembrolizumab [Keytruda], the known effectiveness is given as “ineffective”.
